Source: article PMC10994559 (PLOS Neglected Tropical Diseases, 2024)
Where two headings read alike, the source gives them in different places.

Columns and labels:
T. brucei brucei BSF = assay: T. brucei BSF viability, resazurin reduction; format: cell-based, Trypanosoma brucei brucei; settings: for EC50: ± SD (Table 2) / ± SE (S3 Table)
Method: T. brucei brucei (strain 427 Lister) blood stream form (BSF) parasites were passaged in complete HMI-9 media supplemented with 10% FCS, Pen-Strep (0.1%) and 2-mercaptoethanol (0.014 v/v) and kept in a 37° C CO2 incubator in filter-cap flasks.
(§1) Viability of T. brucei brucei BSF and T. cruzi trypomastigotes was assayed with fluorescence resazurin reduction assay, essentially as described above. […] Next, selected compounds were tested at 2.5 μM concentration, and promising compounds subjected to 18 concentrations dose response analyses. AN3057 and AmB were used as a control drug in T. brucei and T. cruzi, respectively.

T. cruzi trypomastigotes = assay: T. cruzi viability, resazurin reduction; format: cell-based, Trypanosoma cruzi; settings: for viability at 2.5 µM / viability at 25 µM: Trypanosoma cruzi
Method: T. cruzi (Y strain) trypomastigotes were passaged in liver infusion broth media supplemented with tryptose, NaCl, Na2HPO4, KCl, glucose, hemin, Pen-Strep (1%), 10% FCS (pH: 7.2) and kept at 28°C.
as §1

[1] = tested on: intracellular L. infantum amastigotes; assay: Parasite rescue assay (intramacrophage, J774 infected with L. infantum); format: cell-based, Leishmania infantum
[2] = Cytotoxicity assay J774, resazurin reduction; format: cell-based, murine; settings: mouse, J774 macrophage cells
Method: (§2) Mammalian cell lines (J774 and HepG2) were passaged in RPMI media supplemented with MEM, Pen-Strep (1%) and 10% FCS. Cultures were kept at 37°C incubator with 5% CO2 in filter-cap flasks.
(§3) Murine macrophage cells (J774) and human hepatocyte carcinoma HepG2 cells were seeded at 0.5x10^5 cell/well in 384 well plates in triplicate, exposed to serial dilution of compounds, dispensed using an Echo 650 acoustic dispenser (Labcyte). After incubation for 72 h at 37°C, 5% CO2, cell viability was determined using fluorescence resazurin reduction assay (λEx: 550 nm; λEm: 590 nm).

L. major promastigotes = assay: L. major promastigote viability, resazurin reduction; format: cell-based, Leishmania major; settings: for viability at 25 µM: Leishmania major
Source text: (§4) The infectivity of the parasites was boosted by passaging in Balb/c mice and culturing the infected lymph nodes after six weeks. L. infantum (MHOM / BR / 76 / M4192) parasite was passaged in the same media formulation with 0.5% urine.

[3] = tested on: L. major axenic amastigotes; assay: L. major axenic amastigote viability, resazurin reduction
Method: L. major LV561(MHOM/IL/67/LRC-L137 JERICHO II) amastigotes were passaged in Grace insect medium supplemented with NaHCO3, 0.1% amikin and 20% of FCS (pH: 5.4) and kept at 33°C.
Exponential growth phase promastigotes of L. major or L. infantum and axenic amastigotes (L. major) were harvested and seeded in 384 well plates (white, non-transparent, tissue culture treated, flat bottom; Corning) (0.5x10^5 cells per well). Compounds were pre-dispensed into the plate with an Echo 650 acoustic dispenser (Beckman Coulter). After 72h incubation, resazurin was added (1:10 v/v) from a […] stock in PBS, followed by incubation for six hours. Then, fluorescence intensity was measured using a microplate reader (Synergy H1, BioTek) with excitation filter: 550 nm and emission filter: 590 nm. Efficient compounds were selected for the next round of viability assay with 2.5 μM concentrations of the compounds. […] All experiments were performed with AmB as a positive control drug in parallel.
Axenic amastigotes, the relevant form that persists in the infected host, were generated in the lab through established procedures, employing harsh pH (pH 5) and high temperature (33°C) conditions.

E. histolytica = E. histolytica viability, ATP luminescence (Cell titer glo); format: cell-based, Entamoeba histolytica
Method: Entamoeba histolytica (strain B2-5) was passaged in TY-1 medium (Trypticase peptone BBL, Yeast extract BBL, glucose, NaCl, K2HPO4, KH2PO4, cysteine, ascorbic acid, ammonium iron citrate, adult bovine serum, Diamond tween 80, penicillin G, amikacin (pH:6.8)) and kept in 37°C incubator in completely filled tubes with closed lid.
Viability of E. histolytica was assayed via a luminescence assay based on ATP quantification in the live cells. Briefly, 2.5x10^4 cell/ml were exposed to 25 μM of compounds in 96 well plates (non-transparent, tissue culture treated, flat bottom; SPL Life Sciences) in triplicate for 48h. Plates were incubated in sealed anaerobic bags (Oxoid AGS) together with an Anaerogen compact bag (Thermo Scientific) and anaerobic indicator (Thermo Scientific) at 37°C. Then, Cell titer glo reagent (Promega) was added to the reaction (1:5) according to manufacturers’ instruction. After 15 min of orbital shaking, followed by 10 min incubation at RT, ATP-bioluminescence was quantified at RT using a Synergy H1 plate reader (Synergy H1, BioTek). Metronidazole was included as control drug in all the assays for E. histolytica. Test compounds indicating significant growth reduction in the primary screen were subjected to potency determination. These secondary screens were essentially carried out as detailed above, but with a 9 to 16-point concentration range of the test compounds spanning 0.01–100 μM.

[4] = tested on: L. infantum promastigotes; assay: L. infantum promastigote viability, resazurin reduction; format: cell-based, Leishmania infantum; settings: for viability at 2.5 µM / viability at 25 µM: Leishmania infantum
Source text: as §4

[5] = tested on: intracellular L. infantum amastigotes; assay: Parasite rescue assay (intramacrophage, J774 infected with L. infantum); format: cell-based, Leishmania infantum; settings: Leishmania infantum
Method: After 24 h incubation, cells were washed five times with serum free RPMI and exposed to a serial dilution of test compounds, prepared using an acoustic dispenser (Echo 650, Labcyte), in RPMI (2% FCS). After two days, cells were washed thrice, and 20 μl of 0.05% SDS in RPMI was added upon removal of the supernatant. Upon incubation under orbital shaking for 30 seconds, cell lysis was stopped by addition of 180 μl M199 medium supplemented with 10% FCS. […] Then, fluorescence intensity of the samples was measured with a microplate reader (Synergy H1, BioTek) with λEx: 550 nm and λEm: 590 nm. Percent of viability was calculated according to cell only and media controls.
J774A.1 cells (J774) were infected with L. infantum metacyclic promastigotes. […] After controlled lysis of the infected macrophages, the released parasites were quantified using a resazurin based viability assay.

[6] = tested on: Murine macrophage cells (J774); assay: Cytotoxicity assay J774, resazurin reduction; format: cell-based
Method: as §2, §3

[7] = Trypanosoma brucei, read-out: EC50 T. brucei BSF, dose response, triplicate

O=C(CCc1ccc(Br)cc1)NC(Cc1ccccc1)C(O)CN1CCN(Cc2ccccc2)CC1 (stereo not drawn) [LTC-10]
viability at 2.5 µM (T. brucei brucei BSF; Trypanosoma brucei, 2.5 µM, read-out: viability, T.brucei (2.5 µM)): 99.8 ± 6.25%
viability at 25 µM (T. brucei brucei BSF; Trypanosoma brucei, 25 µM, read-out: viability, T.brucei (25 µM)): 2.86 ± 1.31%
EC50 (T. brucei brucei BSF; [7]): 6000 ± 1700 nM
viability at 2.5 µM (T. cruzi trypomastigotes; 2.5 µM, read-out: viability, T.cruzi (2.5 µM)): 61.1 ± 6.21%
viability at 25 µM (T. cruzi trypomastigotes; 25 µM, read-out: viability, T.cruzi (25 µM)): 21.5 ± 1.69%
viability at 25 µM ([1]; J774, 25 µM, intracellular amastigote, read-out: viability, intracellular L. major amastigote (25 µM)): 33.7 ± 12%
viability at 72 h, 2.5 µM ([2]; read-out: viability, J774 (2.5 µM)): 99.9 ± 5.33%
viability at 72 h, 25 µM ([2]; read-out: viability, J774 (25 µM)): 2.99 ± 1.94%
viability at 25 µM (L. major promastigotes; 72 h, read-out: viability, L.major promastigote (25 µM)): 65.1 ± 3.01%
viability at 25 µM (L. major promastigotes; 25 µM, read-out: viability, L.major promastigote (25 µM)): 0.71 ± 1%
viability at 25 µM ([3]; Leishmania major, read-out: viability, L.major amastigote (25 µM)): 74.2 ± 2.26%
EC50 (E. histolytica; Entamoeba histolytica, 48 h, 9 to 16-point dose response): 6500 ± 1700 nM
viability at 2.5 µM (E. histolytica; Entamoeba histolytica, read-out: viability, E.histolytica (2.5 µM)): 73.2 ± 7%
viability at 25 µM (E. histolytica; Entamoeba histolytica, read-out: viability, E.histolytica (25 µM)): 4.28 ± 0.62%
viability at 2.5 µM ([4]; 2.5 µM, sheet LTC_compound_viability, value ± spread, read-out: viability, L. infantum promastigote (2.5 µM)): 100.8 ± 0.96%
viability at 25 µM ([4]; 25 µM, sheet LTC_compound_viability, value ± spread, read-out: viability, L. infantum promastigote (25 µM)): 0.85 ± 0.33%

CC[C@@H](C)[C@H](c1nc2ccccc2n1Cc1cn(-c2c(F)c(F)c(F)c(F)c2F)nn1)N1C(=O)c2ccc(C)cc2C1=O [PHT-80]
EC50 ([5]; J774, read-out: EC50 L. infantum rescue assay, intramacrophage (J774), 18 concentrations): > 10000 nM
viability at 25 µM ([5]; J774, rescue assay in J774, 25 µM, read-out: Residual viability, intracellular L. infantum amastigote (25 µM)): 50.6 ± 13.8%
Residual viability, T.brucei (2.5 µM) (T. brucei brucei BSF; BSF, 2.5 µM, 72 h): 3.41±0.28%
viability at 25 µM (T. brucei brucei BSF; Trypanosoma brucei, 72 h, BSF, 25 µM, 72 h, read-out: Residual viability, T.brucei (25 µM)): -2.86 ± 1.75%
viability at 2.5 µM (T. brucei brucei BSF; Trypanosoma brucei, 72 h, read-out: Residual viability, T.brucei (2.5 µM), BSF, 2.5 µM, 72 h): 3.4%
EC50 (T. brucei brucei BSF; [7]): 400 nM
EC50 (T. brucei brucei BSF; read-out: EC50 T. brucei BSF, dose response, triplicate): 500 nM
EC50 (T. brucei brucei BSF; read-out: EC50 T. brucei BSF, dose response, triplicate, listed as PH-80): 450 nM
viability at 2.5 µM (T. cruzi trypomastigotes; 72 h, 2.5 µM, 72 h, read-out: Residual viability, T.cruzi (2.5 µM)): 72.4 ± 2.05%
viability at 25 µM (T. cruzi trypomastigotes; 72 h, read-out: Residual viability, T.cruzi (25 µM), 25 µM, 72 h): 25.7 ± 3.29%
viability at 72 h, 2.5 µM ([2]; cytotoxicity, 72 h, read-out: Residual viability, J774 (2.5 µM)): 124 ± 4.4%
viability at 72 h, 25 µM ([2]; cytotoxicity, 72 h, read-out: Residual viability, J774 (25 µM)): 78.1 ± 6.86%
EC50 ([6]; Mus musculus, J774, 72 h, cytotoxicity, 72 h): > 25000 nM
viability at 25 µM (L. major promastigotes; 25 µM, 72 h, vs non-treated cells, read-out: Residual viability, L.major promastigote (25 µM)): 11.3 ± 1.4%
viability at 2.5 µM ([3]; Leishmania major, 72 h, read-out: Residual viability, L.major amastigote (2.5 µM)): 50.9 ± 3.89%
viability at 25 µM ([3]; Leishmania major, 72 h, read-out: Residual viability, L.major amastigote (25 µM)): 1.7%
EC50 ([3]; Leishmania major, read-out: EC50 L. major axenic amastigote): 2500 ± 1700 nM
viability at 2.5 µM (E. histolytica; Entamoeba histolytica, 2.5 µM, 48 h, read-out: Residual viability, E.histolytica (2.5 µM)): 61.8 ± 13.1%
viability at 25 µM (E. histolytica; Entamoeba histolytica, 25 µM, 48 h, read-out: Residual viability, E.histolytica (25 µM)): 45.2 ± 18.6%
viability at 2.5 µM ([4]; 2.5 µM, 72 h, vs non-treated cells, read-out: Residual viability, L. infantum promastigote (2.5 µM)): 90.2 ± 3.63%
viability at 25 µM ([4]; 25 µM, 72 h, vs non-treated cells, ± SD, triplicate, read-out: Residual viability, L. infantum promastigote (25 µM)): 2.87 ± 0.48%

LTC-4
viability, T.brucei (2.5 µM) (T. brucei brucei BSF; 2.5 µM): 100.44±5.5
viability, T.brucei (25 µM) (T. brucei brucei BSF; 25 µM): 89.28±12.34
viability, T.cruzi (2.5 µM) (T. cruzi trypomastigotes; 2.5 µM): 57.84±2.64
viability, T.cruzi (25 µM) (T. cruzi trypomastigotes; 25 µM): 58.59±2.21
viability, intracellular L. major amastigote (25 µM) ([1]; 25 µM): 76.09±31.52
viability, J774 (2.5 µM) ([6]; 2.5 µM): 100.11±5.45
viability, J774 (25 µM) ([6]; 25 µM): 144.21±37.63
viability, L.major promastigote (25 µM) (L. major promastigotes; 25 µM): 1.56±2.86
viability, L.major promastigote (25 µM) (L. major promastigotes; head prints 25 µM, second of two columns with this head): 60.14±7.43
viability, L.major amastigote (25 µM) ([3]; 25 µM): 76.6±1.33
viability, E.histolytica (2.5 µM) (E. histolytica; 2.5 µM): 68±7.58
viability, E.histolytica (25 µM) (E. histolytica; 25 µM): 71.3±5.74
viability, L. infantum promastigote (2.5 µM) ([4]; 2.5 µM, sheet LTC_compound_viability, value ± spread): 85.51±1.79
viability, L. infantum promastigote (25 µM) ([4]; 25 µM, sheet LTC_compound_viability, value ± spread): 24.04±0.45
